Assay results from US6576622B1, “Drug combination for the treatment of viral diseases” (University of Medicine & Dentistry of New Jersey, priority 1995, dated 2003).

Columns and labels:
[1] = HPLC analysis of phosphorylated AZT metabolites in clones incubated with 3H-AZT; format: in vitro ADME
Experimental: Cell lines were incubated with ^3H-thymidine or ^3H-AZT for 4 hours. Dried methanol extracts of the clones were redissolved in 60 μof distilled water and centrifuged to remove undissolved material. Twenty microliters of the sample was injected and separated on a 10×100 mm Rainin Hydropore anion exchange column. The nucleosides were eluted from the column with a linear gradient of potassium phosphate (5 mM to 1 M, pH4.0) at a flow rate of 1 ml/min. The samples were collected (0.5 ml), mixed with 5 ml Packard scintillation fluid, and quantitated using a liquid scintillation counter. Phosphorylated derivatives of thymidine and AZT were identified with authentic standards.
Pool sizes were determined by incubation of cells with ^3H-AZT for 4 hours followed by cellular extraction and HPLC. The numbers are expressed as pmoles/10^6 cells. The numbers in parentheses represent the percentage of total radioactive species in that pool.

[2] = system: HIV-LacZ; format: cell-based; conditions: for cross resistance of cell lines “persistently resistant” to AZT to other nucleoside analogs: d4T at 50 μM
[3] = system: MLV-neo; test: MLV-neo colony formation in the presence of antiviral agents; format: cell-based, Moloney Leukemia virus; conditions: Hela-T4, AZT 10 uM, DDI 50 uM, DDC 10 uM, D4T 50 uM, control 9050
Experimental: Production of recombinant HIV-gpt has been described elsewhere (26). The amphotropic cell line PA317 was transfected with the recombinant murine retrovirus pLXSN (36) and was used as the source of the recombinant MLV-neo virus. Stock preparations of HIV-1IIIB were harvested from H9 cells by the “shake off method” (13). Stock virus infectivity was determined by end-point dilution in MT-2 cells (32). Virus induced cytopathic effect was scored 7 days post-infection and the TCID50 was calculated with the Reed and Muench equation (33).
To confirm this high rate of infection in the absence of genetic drug resistance, we used several other recombinant viruses and host cells. […] A high rate of infection of Jurkat cells in the presence of d4T has also been seen.
Table 5. HIV-gpt produced in COS cells by transfection with plasmids (plasmid derived) is compared with HIV-gpt produced by, rescue from H9/HIV-gpt cell line after infection with HIV-IIIB and cells infected with MLV-neo.
(§1) Table 6. Colony formation and persistent resistance after Hela-T4 cell infection with MLV-neo virus in the presence and absence of various antiviral agents.

[4] = system: recombinant HIV, recombinant MLV, or replication-competent HIV; format: cell-based; conditions: Hela-T4, MLV-neo; for No. of persistently resistant colonies: AZT 10 uM, DDI 50 uM, DDC 10 uM, D4T 50 uM, resistant/tested; for Frequency: frequency of persistently resistant colonies
Source text: The presence of a selectable marker gene in the recombinant HIV allowed the isolation of cells infected by the recombinant viruses in the presence of d4T. These cells were characterized by infection with both additional recombinant viruses and by replication-competent viruses.
as §1

[5] = system: HIV-gpt; test: HIV-gpt colony formation after infection of HeLa-T4 cells in the presence of antiretroviral agents; format: cell-based; conditions: HeLa-T4; plasmid derived HIV-gpt (COS cells); AZT 10 μM, DDI 50 μM, D4T 50 μM; no drug control 8800
[6] = S1 (sensitive) cell line, 3H-AZT for 4 hours, HPLC
[7] = R116 (“persistently resistant”) cell line, 3H-AZT for 4 hours, HPLC

concentration in cells [1, 6] [pmoles/10^6 cells]	percentage of total radioactive species in that pool [1, 6] [%]	concentration in cells ([1]; human, 4 h) [pmoles/10^6 cells]	percentage of total radioactive species in that pool ([1]; human, 4 h) [%]	SMILES	cross resistance of cell lines “persistently resistant” to AZT to other nucleoside analogs [2]	No. of colonies [3]	No. of persistently resistant colonies [4]	Frequency [4]	also measured
0.0116	6.9	0.0193	9.6	Cc1cn([C@H]2C[C@H](N=[N+]=[N-])[C@@H](COP(=O)(O)OP(=O)(O)O)O2)c(=O)[nH]c1=O [AZTDP, 3′-azido-3′-deoxythymidine diphosphate]	–	–	–	–	–
0.0158	9.3	0.0083	4.2	Cc1cn([C@H]2C[C@H](N=[N+]=[N-])[C@@H](CO[P@](=O)(O)O[P@](=O)(O)OP(=O)(O)O)O2)c(=O)[nH]c1=O [AZTTP, 3′-azido-3′-deoxythymidine triphosphate]	–	–	–	–	reduction in AZTTP in R116 cells compared to S1 cells ([1]; 3H-AZT incubation): ~2 fold
–	–	–	–	Nc1ccn([C@H]2CC[C@@H](CO)O2)c(=O)n1 [DDC]	None of the “persistently resistant” cell lines were cross “resistant”	17	2/17	2.2 × 10^−4	–
–	–	–	–	O=c1[nH]cnc2c1ncn2[C@H]1CC[C@@H](CO)O1 [DDI]	None of the “persistently resistant” cell lines were cross “resistant”	19	4/19	4.4 × 10^−4	Number of colonies [5]: 16; Number of “persistently resistance” colonies ([2]; colonies from HIV-gpt infection of HeLa-T4 in presence of drug, resistant/tested): 2/16; Frequency ([2]; frequency of persistently resistant colonies, HeLa-T4, plasmid derived HIV-gpt): 2.3 × 10^−4

SMILES	concentration in cells [1, 6] [pmoles/10^6 cells]	percentage of total radioactive species in that pool [1, 6] [%]	concentration in cells ([1]; human, 4 h) [pmoles/10^6 cells]	percentage of total radioactive species in that pool ([1]; human, 4 h) [%]	cross resistance of cell lines “persistently resistant” to AZT to other nucleoside analogs [2]	No. of colonies [3]	No. of persistently resistant colonies [4]	Frequency [4]	also measured
Cc1cn([C@H]2C[C@H](N=[N+]=[N-])[C@@H](COP(=O)(O)O)O2)c(=O)[nH]c1=O [AZTMP, 3′-azido-3′-deoxythymidine monophosphate]	0.1212	71.6	–	–	–	–	–	–	concentration in cells [1, 7]: 0.1575 pmoles/10^6 cells; percentage of total radioactive species in that pool [1, 7]: 78.6%
